Measured values published in patent US10744117B2, “PPARG modulators for the treatment of osteoporosis” (The Scripps Research Institute, priority 2014, dated 2020).
Entries after “also recorded” stand apart in the source; their conditions may differ.

How the values were obtained:
PPARG = assay: Cell-based transactivation assay, 3xPPRE-luciferase reporter co-transfected with PPARG in COS-1 cells; conditions: PPRE-luciferase
lean C57BL/6 mice = assay: Bone study in lean C57BL/6 mice on regular diet, 8 weeks; type: in vivo, mouse; conditions: supplemented RD
Experimental: In parallel, a group of sex- and age-matched control (n=5) was fed regular diet (RD) providing 12 kcal % from fat (2016 Teklad Global, Harlan Laboratories, Indianapolis, Ind.). […] The animal treatment and care protocols conformed to the NIH Guidelines and were performed under the University of Toledo Health Science Campus Institutional Animal Care and Utilization Committee protocol.
(§1) Fat and lean mass were evaluated at the beginning and at the end of experiment using a Minispec mq10 NMR analyzer (Bruker, Billerica, Mass.). Glucose disposal (glucose tolerance test, GTT) was measured after ip injection of 2 g/kg glucose to animals fasted for 4 hrs. Blood glucose was measured using the AlphaTRAK system appropriate for mice (Abbott Laboratories, North Chicago, Ill.). For indirect calorimetry, mice were evaluated in metabolic cages (CLAMS; Columbus Instruments, Columbus, Ohio) for 4 days with a free access to food and water. Mice were housed individually at room temperature (22C) under an alternating 12-h light/dark cycle. After one day adaptation, oxygen (VO2) consumption, carbon dioxide (VCO2) production, physical activity, and heat production were measured to determine energy expenditure. Respiratory exchange ratio was calculated as a ratio of the O2 consumption and the CO2 production. […]

DIO C57BL/6 mice = assay: Bone and marrow fat study in diet induced obesity (DIO) C57BL/6 mice on HFD, 4 wks; type: in vivo, mouse; conditions: 25 mg/kg/d
Experimental: The compound IA-48 (SR10171) acts as an antagonist to PPARy pro-adipocytic activity, and it has been further tested in vivo for its effect on bone. SR10171 was administered to hyperglycemic C57BL/6 mice, 12 wks old males, that were purchased from the Jackson Laboratories (Bar Harbor, Me.). DIO mice: Animals were fed ad libitum for 11 wks high fat diet (HFD) providing 45 kcal % from fat (D12451; Research Diets, New Brunswick, N.J.) to develop diet induced obesity (DIO).
In parallel, a group of sex- and age-matched control (n=5) was fed regular diet (RD) providing 12 kcal % from fat (2016 Teklad Global, Harlan Laboratories, Indianapolis, Ind.). […]
as §1, with “Mice were housed individually at room temperature (22C) under an alternating 12-h light/dark cycle.” left out, “expenditure.” for “expenditure. Respiratory exchange ratio was calculated as a ratio of the O2 consumption and the CO2 production.”

[1] = test system: obese mice fed a high fat diet; assay: Glucose tolerance test in mice on RD or HFD (FIG. 7); type: in vivo, mouse; conditions: mice fasted, bolus of glucose, plasma glucose over time

CN(CCOc1ccc(CC2SC(=O)NC2=O)cc1)c1ccccn1 (centres unmarked) [Rosiglitazone, rosiglitazone]
activation of the reporter (PPARG): about 5 fold
loss of trabecular bone mass (lean C57BL/6 mice): 30%
decrease of trabecular bone mass (DIO C57BL/6 mice): 70%
bone marrow fat content (osmium staining) (DIO C57BL/6 mice; trabecular region of tibia): significant fat accumulation in the bone marrow; also recorded: significantly increased fat content in the bone marrow
glucose tolerance / glucose disposal [1]: insulin sensitization effects and improved glucose disposal
